How the values were obtained:
[1] = Cytotoxicity against Flp-In-293 cells assessed as reduction in cell viability measured after 72 hrs by SRB assay; assay type: cell-based; conditions: Homo sapiens, Flp-In-293, 72 h
HeLa = assay: Cytotoxicity against human HeLa cells assessed as reduction in cell viability measured after 72 hrs by SRB assay; assay type: cell-based
[2] = Cytotoxicity against Flp-In-293 cells expressing human ABCB1 assessed as reduction in cell viability measured after 72 hrs by SRB assay; assay type: ADME, cell-based; conditions: Flp-In-293, 72 h
[3] = Cytotoxicity against human KB-VIN cells assessed as reduction in cell viability measured after 72 hrs by SRB assay; assay type: cell-based; conditions: KBVIN

Measured: IC50

COc1ccc(CCN(C)CCCC(C#N)(c2ccc(OC)c(OC)c2)C(C)C)cc1OC (centres undefined)
> 50 µM: [1] | HeLa | [2] | [3]
